Results published in patent US20210113493A1, “KETAMINE FOR THE TREATMENT OF M[…] SYMPTOMS” (priority 2016, published 2021).

Tests used:
[1] = system: subclinical menstrually related symptoms; conditions: 50 mg lozenges, ½ to 2 once to three times daily
[2] = system: symptoms of menstrual related pain and emotion; test: Evaluation of sublingual ketamine lozenges/ODTs in women, Daily Record of Severity of Problems
[3] = Aun, Br. J. Anaesthesia 83: 29-41 (1999); cited from earlier work

N[C@@]1(c2ccccc2Cl)CCC[C@@H](O)C1=O
mental clarity [1]: can experience an increase in mental clarity

CNC1(c2ccccc2Cl)CCCCC1=O (racemic) [ketamine]
subjects reporting sufficient improvement with a 25 mg dose ([2]; 25 mg dose, 9 women): Three subjects reported sufficient improvement
interference with functionality ([2]; 50 mg dose, 9 women): One subject reported that a 50 mg dose interfered with their functionality
relief of PMS symptoms at 100 mg dose ([2]; 100 mg dose, preferred by three subjects): substantial relief of PMS symptoms
negative after effects ([2]; 9 women): no reports of negative after effects
subjects reporting emotional symptom improvement during the symptomatic days of their cycles ([2]; 9 women, 25-100 mg ketamine racemate sublingual lozenge/ODT): 9 subjects
duration of effect ([2]; all subjects, beyond the time of administration): lasting for days, or more, beyond the time of ketamine administration
effect on breast tenderness and cramping ([2]; physical symptoms, 9 women): positively affected in three subjects, but not in six others
improvement of headaches ([2]; physical symptoms, 9 women): Two subjects reported improvement of headaches
duration of anesthetic effects ([2]; sublingual, first hour the intense portion): up to 2 hours
duration of relief of physical symptoms ([2]; two subjects, doses of 50 mg and 100 mg, until menses began): 5 days

CN[C@]1(c2ccccc2Cl)CCCCC1=O [S-(+)-ketamine]
potency for use in anesthesia relative to R-(−)-ketamine [3]: twice as potent as R-(−)-ketamine

NC1(c2ccccc2Cl)CCCCC1=O (stereo not shown) [norketamine]
potency for use in anesthesia relative to ketamine [3]: one third the potency of ketamine
